Laboratory results reported in patent publication US8722849B2, “Polypeptides” (Novo Nordisk A/S, priority 2011, dated 2014).
Values after ≈ are worked out from the molar mass of the structure shown. Read-outs that look alike come from different tables or passages of the source. Starred links: 1 amine or outer side, 2 acyl side, 3 side chain; linkers in the order of their positions; H or OH if unused. Positions of bridges follow the written chain, without caps; N, C: chain ends. Residues, ends and D or L forms follow the SMILES beside them. *: point of attachment. C20 diacid = O=C(O)CCCCCCCCCCCCCCCCCCC(=O)*; γGlu = O=C(O)[C@H](CCC(=O)[*:2])N[*:1]

Legend:
[1] = molecular target: T1, human calcitonin receptor (Homo sapiens, UniProt P30988); assay: Assay (II)a functional CRE-luciferase assay, human calcitonin receptor; type: cell-based; conditions: Table 7; human calcitonin (CTa) receptor
T1 construct: expressed in transfected cells; host or cells: BHK570
T1 sequence (P30988 25-474): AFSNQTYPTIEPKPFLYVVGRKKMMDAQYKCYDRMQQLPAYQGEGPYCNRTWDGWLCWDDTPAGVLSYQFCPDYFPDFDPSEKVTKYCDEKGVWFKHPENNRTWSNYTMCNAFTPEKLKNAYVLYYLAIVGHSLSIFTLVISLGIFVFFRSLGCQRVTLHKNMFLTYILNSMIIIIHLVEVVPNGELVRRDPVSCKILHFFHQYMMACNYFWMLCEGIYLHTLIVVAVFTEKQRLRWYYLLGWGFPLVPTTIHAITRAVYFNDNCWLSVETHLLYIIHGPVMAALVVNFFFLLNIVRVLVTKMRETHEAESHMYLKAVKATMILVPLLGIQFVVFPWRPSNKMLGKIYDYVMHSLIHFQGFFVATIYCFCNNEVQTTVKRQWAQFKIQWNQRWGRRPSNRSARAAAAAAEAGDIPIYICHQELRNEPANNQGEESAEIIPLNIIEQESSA

[2] = molecular target: T2, human amylin receptor (amylin 3(a) receptor: human calcitonin receptor + RAMP-3) (Homo sapiens, UniProt O60896+P30988); assay: Assay (II)a functional CRE-luciferase assay, human amylin receptor; type: cell-based; conditions: Table 2; BHK amylin 3(a)-receptor/CRE-luc cells
T2 construct: expressed in transfected cells; host or cells: BHK570
T2 sequence (P30988 25-474): T1 sequence (P30988 25-474)
T2 sequence (O60896 24-148 partner): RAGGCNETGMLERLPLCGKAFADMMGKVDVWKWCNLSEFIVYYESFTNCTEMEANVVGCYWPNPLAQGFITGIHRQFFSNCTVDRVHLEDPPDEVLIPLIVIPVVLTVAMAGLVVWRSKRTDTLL

[3] = molecular target: T3, rat calcitonin (a) receptor (Rattus norvegicus, UniProt P32214); assay: Assay (II)b functional cAMP FlashPlate assay, rat calcitonin receptor; type: cell-based; conditions: Table 11; read-out: CTa receptor rat EC50
T3 construct: expressed in transfected cells; host or cells: BHK tk'ts 13
T3 sequence (P32214 25-479 isoform P32214-2 limits assumed): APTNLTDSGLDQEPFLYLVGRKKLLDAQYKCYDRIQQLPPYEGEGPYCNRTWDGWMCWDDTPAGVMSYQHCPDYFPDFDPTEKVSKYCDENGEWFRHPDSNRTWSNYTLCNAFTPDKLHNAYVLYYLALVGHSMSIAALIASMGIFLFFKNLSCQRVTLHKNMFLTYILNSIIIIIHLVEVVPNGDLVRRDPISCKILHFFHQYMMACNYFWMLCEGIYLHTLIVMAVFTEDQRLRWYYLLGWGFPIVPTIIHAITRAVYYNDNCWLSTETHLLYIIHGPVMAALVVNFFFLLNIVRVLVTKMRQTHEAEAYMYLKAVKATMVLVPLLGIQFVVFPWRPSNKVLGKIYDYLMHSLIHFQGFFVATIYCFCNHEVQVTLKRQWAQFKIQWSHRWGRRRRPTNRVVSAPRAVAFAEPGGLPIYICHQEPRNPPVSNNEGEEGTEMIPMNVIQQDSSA
Outline: (§1)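 cAMP accumulation in transiently transfected BHK tk'ts 13 cells, 100.000 cells/well, expressing rat calcitonin(a) receptor or its RAMP3 co-expression form (amylin 3(a)): 30 min stimulation with IBMX, 24 hours post-transfection. Readout by competition of cellular versus radiolabelled cAMP in FlashPlates, scintillation counted after 3 h.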

[4] = molecular target: T4, rat amylin 3(a) receptor (rat calcitonin(a) receptor + rat RAMP3) (Rattus norvegicus, UniProt P32214+Q9JJ73); assay: Assay (II)b functional cAMP FlashPlate assay, rat amylin receptor; type: cell-based; conditions: Table 11
T4 construct: expressed in transfected cells; host or cells: BHK tk'ts 13
T4 sequence (P32214 25-479 isoform P32214-2 limits assumed): T3 sequence (P32214 25-479 isoform P32214-2 limits assumed)
T4 sequence (Q9JJ73 23-147 partner): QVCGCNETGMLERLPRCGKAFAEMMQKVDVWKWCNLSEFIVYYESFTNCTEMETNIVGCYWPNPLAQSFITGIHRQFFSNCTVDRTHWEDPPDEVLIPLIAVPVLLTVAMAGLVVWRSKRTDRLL
Outline: as §1

[5] = Assay (IV) determination of solubility; type: physicochemical
Outline: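 Solubility was profiled across pH 3.0–8.0 after 18 hours at room temperature: a ~500 nmol/ml aqueous polypeptide solution was diluted 1:1 into 100 mM glycylglycine or bistrispropane buffers. After centrifugation, HPLC gave the dissolved concentration.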

[6] = bistrispropane buffer, pH 6, pH 6.0, read-out: Solubility pH 6.0
[7] = bistrispropane buffer, pH 6.5, pH 6.5, read-out: Solubility pH 6.5
[8] = bistrispropane buffer, pH 7, pH 7.0, 18 hours at room temperature, Table 3, read-out: Solubility pH 7.0
[9] = bistrispropane buffer, pH 7, pH 7.0, Table 8, read-out: Solubility pH 7.0
[10] = bistrispropane buffer, pH 7, pH 7.0, Table 9, read-out: Solubility pH 7.0
[11] = bistrispropane buffer, pH 7, pH 7.0, read-out: Solubility pH 7.0
[12] = bistrispropane buffer, pH 7.5, pH 7.5, Table 9, read-out: Solubility pH 7.5
[13] = bistrispropane buffer, pH 7.5, pH 7.5, read-out: Solubility pH 7.5
[14] = bistrispropane buffer, pH 8, pH 8.0, read-out: Solubility pH 8.0
[15] = glycylglycine buffer, pH 3, pH 3.0, read-out: Solubility pH 3.0
[16] = glycylglycine buffer, pH 4, pH 4.0, 18 hours at room temperature, Table 2, read-out: Solubility pH 4.0
[17] = glycylglycine buffer, pH 4, pH 4.0, read-out: Solubility pH 4.0
[18] = glycylglycine buffer, pH 5, pH 5.0, read-out: Solubility pH 5.0

EC50 [1] [nM] | EC50 [2] [nM] | EC50 [3] [nM] | EC50 [4] [nM] | solubility at 18 h [5, 6] [µM] | solubility at 18 h [5, 7] [µM] | solubility at 18 h [5, 8] [µM] | solubility at 18 h [5, 9] [µM] | solubility at 18 h [5, 10] [µM] | solubility at 18 h [5, 11] [µM] | solubility at 18 h [5, 12] [µM] | solubility at 18 h [5, 13] [µM] | solubility at 18 h [5, 14] [µM] | solubility at 18 h [5, 15] [µM] | solubility at 18 h [5, 16] [µM] | solubility at 18 h [5, 17] [µM] | solubility at 18 h [5, 18] [µM] | Compound
0.0475 | 0.0325 | 0.128 | 0.217 | > 200 | > 200 | > 200 | > 200 | > 200 | > 200 | > 200 | > 200 | > 200 | > 200 | > 200 | > 200 | > 200 | CC[C@H](C)[C@H](NC(=O)[C@@H]1CCCN1C(=O)CNC(=O)[C@H](Cc1ccccc1)NC(=O)[C@H](CC(N)=O)NC(=O)[C@H](CC(N)=O)NC(=O)[C@H](CO)NC(=O)[C@H](CO)NC(=O)[C@H](Cc1c[nH]cn1)NC(=O)[C@H](CCCNC(=N)N)NC(=O)[C@H](CC(C)C)NC(=O)[C@H](Cc1ccccc1)NC(=O)[C@H](CCC(=O)O)NC(=O)[C@H](C)NC(=O)[C@H](CC(C)C)NC(=O)[C@H](CCCNC(=N)N)NC(=O)[C@H](CCC(N)=O)NC(=O)[C@@H](NC(=O)[C@H](C)NC(=O)[C@@H]1CSSC[C@H](NC(=O)[C@H](Cc2c[nH]cn2)NC(=O)CC[C@H](NC(=O)CCCCCCCCCCCCCCCCCCC(=O)O)C(=O)O)C(=O)N[C@@H](CC(N)=O)C(=O)N[C@@H]([C@@H](C)O)C(=O)N[C@@H](C)C(=O)N[C@@H]([C@@H](C)O)C(=O)N1)[C@@H](C)O)C(=O)N[C@@H](CC(C)C)C(=O)N1CCC[C@H]1C(=O)N1CCC[C@H]1C(=O)N[C@H](C(=O)N[C@@H](CC(N)=O)C(=O)N[C@H](C(=O)NCC(=O)N[C@@H](CO)C(=O)N[C@@H](CC(N)=O)C(=O)N[C@H](C(=O)N1CCC[C@H]1C(N)=O)[C@@H](C)O)C(C)C)[C@@H](C)O [Example 90, N-alpha-[(S)-4-Carboxy-4-(19-carboxynonadecanoylamino)butyryl]-[His1,Glu14,Arg17,Pro37]-pramlintide] ({C20 diacid-γGlu}-HCNTATCATQRLAEFLRHSSNNFGPILPPTNVGSNTP-NH2; disulfide 2-7 (inferred); C-terminus assumed)
0.18 | 0.136 | 0.215 | 0.138 | > 200 | 84 (≈ 373 µg/mL) | – | – | – | 74 (≈ 329 µg/mL) | – | 163 (≈ 724 µg/mL) | > 200 | > 200 | > 200 | > 200 | > 200 | CC[C@H](C)[C@H](NC(=O)[C@@H]1CCCN1C(=O)CNC(=O)[C@H](Cc1ccccc1)NC(=O)[C@H](CC(N)=O)NC(=O)[C@H](CC(N)=O)NC(=O)[C@H](CO)NC(=O)[C@H](CO)NC(=O)[C@H](Cc1c[nH]cn1)NC(=O)[C@@H](NC(=O)[C@H](CC(C)C)NC(=O)[C@H](Cc1ccccc1)NC(=O)[C@H](CCC(=O)O)NC(=O)[C@H](C)NC(=O)[C@H](CC(C)C)NC(=O)[C@H](CCCNC(=N)N)NC(=O)[C@H](CCC(N)=O)NC(=O)[C@@H](NC(=O)[C@H](C)NC(=O)[C@@H]1CSSC[C@H](NC(=O)[C@H](CCCCN)NC(=O)CC[C@H](NC(=O)CCCCCCCCCCCCCCCCCCC(=O)O)C(=O)O)C(=O)N[C@@H](CC(N)=O)C(=O)N[C@@H]([C@@H](C)O)C(=O)N[C@@H](C)C(=O)N[C@@H]([C@@H](C)O)C(=O)N1)[C@@H](C)O)C(C)C)C(=O)N[C@@H](CC(C)C)C(=O)N1CCC[C@H]1C(=O)N1CCC[C@H]1C(=O)N[C@H](C(=O)N[C@@H](CC(N)=O)C(=O)N[C@H](C(=O)NCC(=O)N[C@@H](CO)C(=O)N[C@@H](Cc1c[nH]cn1)C(=O)N[C@H](C(=O)N[C@@H](Cc1ccc(O)cc1)C(N)=O)[C@@H](C)O)C(C)C)[C@@H](C)O [Example 93, N-alpha-[(S)-4-Carboxy-4-(19-carboxynonadecanoylamino)butyryl]-[Glu14,His35]-pramlintide] ({C20 diacid-γGlu}-KCNTATCATQRLAEFLVHSSNNFGPILPPTNVGSHTY-NH2; disulfide 2-7 (inferred); C-terminus assumed)
0.055 | 0.043 | 0.058 | 0.088 | > 200 | > 200 | > 200 | > 200 | > 200 | > 200 | > 200 | > 200 | > 200 | > 200 | > 200 | > 200 | > 200 | CC[C@H](C)[C@H](NC(=O)[C@@H]1CCCN1C(=O)CNC(=O)[C@H](Cc1ccccc1)NC(=O)[C@H](CC(N)=O)NC(=O)[C@H](CC(N)=O)NC(=O)[C@H](CO)NC(=O)[C@H](CO)NC(=O)[C@H](Cc1c[nH]cn1)NC(=O)[C@H](Cc1c[nH]cn1)NC(=O)[C@H](CC(C)C)NC(=O)[C@H](Cc1ccccc1)NC(=O)[C@H](CCC(=O)O)NC(=O)[C@H](C)NC(=O)[C@H](CC(C)C)NC(=O)[C@H](CCCNC(=N)N)NC(=O)[C@H](CCC(N)=O)NC(=O)[C@@H](NC(=O)[C@H](C)NC(=O)[C@@H]1CSSC[C@H](NC(=O)[C@H](CCCNC(=N)N)NC(=O)CC[C@H](NC(=O)CCCCCCCCCCCCCCCCCCC(=O)O)C(=O)O)C(=O)N[C@@H](CC(N)=O)C(=O)N[C@@H]([C@@H](C)O)C(=O)N[C@@H](C)C(=O)N[C@@H]([C@@H](C)O)C(=O)N1)[C@@H](C)O)C(=O)N[C@@H](CC(C)C)C(=O)N1CCC[C@H]1C(=O)N1CCC[C@H]1C(=O)N[C@H](C(=O)N[C@@H](CC(N)=O)C(=O)N[C@H](C(=O)NCC(=O)N[C@@H](CO)C(=O)N[C@@H](CC(N)=O)C(=O)N[C@H](C(=O)N1CCC[C@H]1C(N)=O)[C@@H](C)O)C(C)C)[C@@H](C)O [Example 96, N-alpha-[(S)-4-Carboxy-4-(19-carboxynonadecanoylamino)butyryl]-[Arg1,Glu14,His17,Pro37]-pramlintide] ({C20 diacid-γGlu}-RCNTATCATQRLAEFLHHSSNNFGPILPPTNVGSNTP-NH2; disulfide 2-7 (inferred))
